The term IC70 denotes the point of the concentration-response curve where the effect stands at 70%.

These results are taken from patent publication US20050106262A1, “Pharmaceutical composition comprising arsenite for the treatment of malignancy” (Korea Microbiological Laboratories, Ltd., priority 2002, published 2005).

Experiment [1] has as its system Ehrlich ascites tumour. The conditions noted are these: cited from earlier work.
Experiment [2] concerns promyelocytic leukaemia. In words: modified propidium iodide cytotoxicity assay, promyelocytic leukaemia (comparison). Type of experiment: cell-based, human. How it is done:
(§1) Various human tumor cells were grown at 37° C. in a humidified atmosphere (95% air, 5% CO2) in monolayer cultures in RPMI 1640 medium with phenol red (Life Technologies, Karlsruhe, Germany) supplemented with 10% fetal calf serum. Cells were trypsinized and maintained weekly.
(§2) A modified propidium iodide assay (based on W. A. Dengler et. al, Anti-Cancer Drugs, 6, pp. 522-532 (1995)) was used to examine the antiproliferative activity of the study compounds. Briefly, cells will be harvested from exponential phase cultures growing in RPMI 1640 medium supplemented with 10% fetal calf serum by trypsination, counted and plated in 96 well flat-bottomed microtiter plates (140 μl cell suspension, 8×10^4 cells/ml). […] After thawing of the plates, fluorescence was measured using a Millipore Cytofluor 2350-microplate reader (excitation 530 nm, emission 620 nm) in order to quantify the total cell number. […]
(§3) Growth inhibition is expressed as Treated/Control×100 (or T/C %). IC50 and IC70 values were determined by plotting compound concentration versus cell number. Mean IC50 and IC70 values were calculated according to the formula: [formula]
(§4) With x=specific tumor cell line and n=total number of cell lines studied. If IC50 or IC70 could not be determined within the examined dose range, the lowest or highest concentration studied was used for the calculation.

Experiment [3] concerns MXAF401NL. Put plainly: modified propidium iodide cytotoxicity assay, mammary tumour cell line. It counts as cell-based, human. To be noted: 4 days of incubation. Here is the method:
as §1, §2, §3, §4

In experiment [4] the test system is GXF251L. In words: modified propidium iodide cytotoxicity assay, gastric tumour cell line. Type of experiment: cell-based, human. To be noted: 4 days of incubation. How it is done: as §1, §2, §3, §4
Experiment [5] deals with PC3. In words: modified propidium iodide cytotoxicity assay, prostate tumour cell line. The conditions noted are these: Prostate tumour cell line PC3, 4 days of incubation. It counts as cell-based, human. Here is the method:
as §1, §2, §3, §4

The subject of experiment [6] is OVCAR3. Put plainly: modified propidium iodide cytotoxicity assay, ovarian tumour cell line. The conditions noted are these: Ovarian tumour cell line OVCAR3, 4 days of incubation. It counts as cell-based, human. How it is done:
as §1, §2, §3, §4

The subject of experiment [7] is RXF486L. In words: modified propidium iodide cytotoxicity assay, renal tumour cell line. The conditions noted are these: 4 days of incubation. Type of experiment: cell-based, human. How it is done:
as §1, §2, §3, §4

Experiment [8] relates to DLD1. In words: modified propidium iodide cytotoxicity assay, colon tumour cell line. It counts as cell-based, human. The conditions noted are these: Colon tumour cell line DLD1, 4 days of incubation. Here is the method: as §1, §2, §3, §4

For the substance Potassium arsenite, in experiment [1], the “effect on tumour growth” value is on record as “affected only the growth of Ehrlich ascites tumour”.
On to “salt of meta-arsenite (AsO2^−) [meta-arsenite compound]”, for which the IC70 in experiment [2] (promyelocytic leukaemia, comparison) stood at 6.82 µg/mL; in experiment [3] it was 0.32 µg/mL; in experiment [4], 3.08 µg/mL; in experiment [5], 0.85 µg/mL; in experiment [6], 3.02 µg/mL; in experiment [7] it was 0.63 µg/mL. The substance further came in with an IC70 in experiment [8] of 0.48 µg/mL. For the same substance, the “sensitivity of the Table I tumour cells relative to promyelocytic leukaemia” value in experiment [2] (ratio of IC70 values, solid tumour cells versus promyelocytic leukaemia) was 2 to 20 times.
